Source: patent publication US10865207B2, “Compounds for imaging Tau protein aggregates” (AC IMMUNE S.A., priority 2016, dated 2020)
Marks after values point to notes of the source that are not given here. One block for each molecule: values may come before it.

Legend:
[1] = molecular target: T1, MAO A (Mus musculus, UniProt Q64133); test: MAO A 18F-FEH competition assay in mouse brain homogenate; format: binding; set-up: Low affinity to MAO A (grade), mouse brain homogenate: key to the marks not given beside the values; conditions: for IC50: 18F-FEH competition, fluorine-19 derivatives
T1 construct: from tissue; host or cells: whole mouse brain homogenate
T1 sequence (Q64133 1-526): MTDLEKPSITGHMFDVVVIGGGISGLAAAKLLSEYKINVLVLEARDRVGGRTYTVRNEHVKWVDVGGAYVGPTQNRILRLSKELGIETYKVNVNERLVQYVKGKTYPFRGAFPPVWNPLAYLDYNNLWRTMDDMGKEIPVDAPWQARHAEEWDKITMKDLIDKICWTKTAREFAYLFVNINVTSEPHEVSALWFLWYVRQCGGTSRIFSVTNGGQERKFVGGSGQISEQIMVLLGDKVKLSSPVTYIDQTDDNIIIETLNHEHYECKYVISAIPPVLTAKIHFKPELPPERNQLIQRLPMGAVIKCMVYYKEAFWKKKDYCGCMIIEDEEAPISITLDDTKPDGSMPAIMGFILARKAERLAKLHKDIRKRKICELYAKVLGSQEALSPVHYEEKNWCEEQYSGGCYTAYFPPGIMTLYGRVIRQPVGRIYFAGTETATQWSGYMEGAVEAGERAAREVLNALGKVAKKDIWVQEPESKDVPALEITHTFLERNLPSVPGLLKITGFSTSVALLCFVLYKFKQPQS

[2] = PK studies in healthy mice (dynamic PET); format: in vivo, NMRI mice; set-up: Good brain uptake (grade) / Mouse PK Uptake (grade): key: −: poor; ∘: moderate; +: good; ++: very good; +++: excellent; for Fast washout from healthy brain (grade): key: −: poor; ∘: moderate; +: good; ++: very good; +++: excellent; for Good brain uptake (grade): key: −: poor; ∘: moderate; +: good; ++: very good; +++: excellent; for Low or minor de-fluorination (grade): key: −: poor; ∘: moderate; +: good; ++: very good; +++: excellent; for Low retention in healthy brain (grade): key: −: poor; ∘: moderate; +: good; ++: very good; +++: excellent
Procedure: NMRI mice (weight range 25-35 g) were injected intravenously with the ^18F-labeled compounds. Up to 150 μL of 1×PBS solution with 10%-15% EtOH or dilution medium ([…]) containing the ^18F-labeled compound (2-10 MBq) were injected. Anesthesia with isoflurane was induced before injection of the tracer and maintained during the image acquisition period. PET scans were performed using a SIEMENS INVEON small animal PET/CT scanner (Siemens, Knoxville, Tenn.). PET acquisition was started immediately before the radioactive dose was injected into the animal through the tail vein. Images were generated as dynamic scans for 60 minutes.
The peak uptake in the brain was set to 100% and washout curves were generated to evaluate the clearance of the activity from the normal brain (FIG. 2).

[3] = molecular target: T2, MAO B (Homo sapiens, UniProt P27338); test: MAO B 18F-fluoro deprenyl competition assay in human HC brain homogenate; format: binding; set-up: Low affinity to MAO B (grade): key: −: poor; ∘: moderate; +: good; ++: very good; +++: excellent
T2 construct: 20 μg of human brain homogenate (without AD pathology); from tissue; host or cells: human brain homogenate without AD pathology
T2 sequence (P27338 1-520): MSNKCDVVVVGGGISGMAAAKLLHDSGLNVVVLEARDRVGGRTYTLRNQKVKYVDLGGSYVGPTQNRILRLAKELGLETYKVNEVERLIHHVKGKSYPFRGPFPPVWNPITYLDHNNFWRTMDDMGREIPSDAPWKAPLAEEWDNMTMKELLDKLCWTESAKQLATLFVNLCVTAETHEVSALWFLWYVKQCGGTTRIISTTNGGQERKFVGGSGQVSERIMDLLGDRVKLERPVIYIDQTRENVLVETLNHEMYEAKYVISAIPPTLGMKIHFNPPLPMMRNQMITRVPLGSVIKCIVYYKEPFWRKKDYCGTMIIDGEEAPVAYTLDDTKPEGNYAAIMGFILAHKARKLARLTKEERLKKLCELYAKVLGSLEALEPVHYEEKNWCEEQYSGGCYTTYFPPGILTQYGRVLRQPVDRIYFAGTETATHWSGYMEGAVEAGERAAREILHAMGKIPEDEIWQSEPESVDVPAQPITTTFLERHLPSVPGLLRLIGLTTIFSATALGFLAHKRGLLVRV
Procedure: The samples were shaken at 110 rpm for 45 min at 37° C. Samples were then filtered through GF/B 96 well filter plates and washed twice with 300 μL assay buffer (PBS containing 0.1% BSA and 2% DMSO). Thereafter, filter plates were sealed and a Fuji Film Imaging Plate (BAS-SR2025) was placed on top. The imaging plate was analyzed after overnight exposition using a Fuji Film BAS-5000. […] IC50 values were calculated by Prism V6 (GraphPad) setting total binding to 100%.

[4] = molecular target: Tau (Homo sapiens, UniProt P10636); test: Competition binding to Tau in human AD brain homogenate with 18F-labeled Tau binder; set-up: High affinity to Tau (grade): key: −: poor; ∘: moderate; +: good; ++: very good; +++: excellent; conditions: for IC50: human AD brain homogenate, determined with non-radioactive fluorine-19 derivatives
Procedure: (§1) 20 μg of human Alzheimer disease brain homogenate was incubated with a dilution series of each test compound (1000 to 0.06 nM) in the presence of 800 Bq of ^18F-labeled Tau binder. The samples were shaken at 110 rpm for 45 min at 37° C. Samples were then filtered through GF/B 96 well filter plates and washed twice with 300 μL assay buffer (PBS containing 0.1% BSA and 2% DMSO). Thereafter, filter plates were sealed and a Fuji Film Imaging Plate (BAS-SR2025) was placed on top. The imaging plate was analyzed after overnight exposition using a Fuji Film BAS-5000. Non-specific signal was determined with samples containing ^18F-labeled Tau-reference binder in the presence of assay buffer without brain substrate and competitor. […] The unblocked ^18F-labeled Tau-binder signal was defined as total binding. IC50 values were calculated by Prism V6 (GraphPad) setting total binding to 100%.

[5] = molecular target: amyloid-beta (Homo sapiens, UniProt P05067); test: Competition binding to amyloid-beta in AD brain homogenate; conditions: for IC50: fluorine-19 derivatives
Procedure: as §1, with “beta-amyloid” for “Tau”, “beta-amyloid” for “Tau-reference”, “beta-amyloid binder” for “Tau-binder”

Sequence of Tau (P10636 623-708 limits assumed): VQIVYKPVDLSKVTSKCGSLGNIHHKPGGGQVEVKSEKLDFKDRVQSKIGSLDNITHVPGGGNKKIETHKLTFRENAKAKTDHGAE
Sequence of amyloid-beta (P05067 whole entry): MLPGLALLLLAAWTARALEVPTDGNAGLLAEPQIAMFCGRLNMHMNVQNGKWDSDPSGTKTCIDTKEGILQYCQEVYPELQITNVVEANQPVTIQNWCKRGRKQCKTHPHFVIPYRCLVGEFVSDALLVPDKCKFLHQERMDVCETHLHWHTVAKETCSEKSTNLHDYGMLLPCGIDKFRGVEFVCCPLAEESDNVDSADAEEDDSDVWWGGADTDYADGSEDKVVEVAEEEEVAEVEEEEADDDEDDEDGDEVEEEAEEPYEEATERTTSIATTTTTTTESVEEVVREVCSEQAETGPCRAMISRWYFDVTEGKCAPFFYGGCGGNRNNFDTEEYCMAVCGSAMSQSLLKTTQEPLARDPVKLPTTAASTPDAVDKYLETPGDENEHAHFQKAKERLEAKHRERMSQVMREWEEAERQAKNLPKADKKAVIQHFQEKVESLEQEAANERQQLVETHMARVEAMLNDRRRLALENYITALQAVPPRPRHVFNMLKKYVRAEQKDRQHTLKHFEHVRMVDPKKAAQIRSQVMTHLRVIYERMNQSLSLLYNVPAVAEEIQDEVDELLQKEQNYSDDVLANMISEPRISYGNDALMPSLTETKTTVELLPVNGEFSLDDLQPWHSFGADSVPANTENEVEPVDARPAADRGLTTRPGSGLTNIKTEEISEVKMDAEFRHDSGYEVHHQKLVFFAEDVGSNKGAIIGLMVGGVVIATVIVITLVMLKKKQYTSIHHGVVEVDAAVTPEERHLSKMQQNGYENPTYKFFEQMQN

IC50 [1]: 1300 nM
Low affinity to MAO A (grade), mouse brain homogenate ([1]; Table 1): +++
fold higher MAO A IC50 than compound 18F-1 ([1]; whole mouse brain homogenate): 59 fold
fold higher MAO A IC50 than compound 18F-2 ([1]; whole mouse brain homogenate): 2.7 fold
Fast washout from healthy brain (grade) ([2]; Table 1): +++
Good brain uptake (grade) ([2]; Table 1): ++
Low or minor de-fluorination (grade) ([2]; Table 1): +++
Low retention in healthy brain (grade) ([2]; Table 1): +++
fold faster washout from healthy brain than compound 18F-1 ([2]; mice): 3.2 fold
fold faster washout from healthy brain than compound 18F-2 ([2]; mice): 2.0 fold
fold less long-term retention in healthy brain than compound 18F-1 ([2]; mice): 4 fold
fold less long-term retention in healthy brain than compound 18F-2 ([2]; mice): 3 fold
De-fluorination in mice (in words) ([2]; mouse, in vivo): No de-fluorination
IC50 [3]: > 1000 nM
fold higher MAO B IC50 than compound 18F-1 ([3]; HC brain homogenate): > 5 fold
Low affinity to MAO B (grade) ([3]; Table 1): +++
High affinity to Tau (grade) ([4]; Table 1, IC50 in AD brain homogenate, fluorine-19 derivatives): +++
IC50 [4]: < 2 nM
Low affinity to amyloid-beta (grade) ([5]; Table 1): +++^a)
IC50 [5]: > 1000 nM
SMILES: [18F]c1ncccc1-c1ccc2c(n1)[nH]c1ccncc12 [Compound ^18F-4]

IC50 [1]: > 1000 nM
low MAO A binding (grade) ([1]; Table 2, IC50 in mouse brain homogenate): +++
Mouse PK De-fluorination (grade) ([2]; Table 2): +++
Mouse PK Uptake (grade) ([2]; Table 2): ++
Mouse PK Washout (grade) ([2]; Table 2): ++
bone uptake in shoulder joint at 60 min (de-fluorination) ([2]; healthy mice, after iv injection): (<0.5% ID/g) ^f
peak uptake in brain (tracer uptake in healthy mice after iv injection) ([2]; healthy mice, iv, PET): (5.8% ID/g)
ratio of uptake peak/30 min (washout from healthy brain) ([2]; healthy mice, Table 1: ratio of uptake at 2 min and 30 min): (22)
IC50 [3]: > 1000 nM
high Tau binding (grade) ([4]; Table 2, fluorine-19 derivatives): +++
IC50 [4]: < 2 nM
IC50 [5]: > 1000 nM
SMILES: Fc1ncccc1-c1ccc2c(n1)[nH]c1ccncc12 [Compound F-4]
